Results: patent publication US10336762B2 (priority 2017, dated 2019)
Like-named read-outs stand apart in the source and are kept apart here.

Key:
[1] = test system: TNFα; assay: cells; assay type: cell-based, human; settings: read-out: EC50 TNF
[2] = target: IRAK4 enzyme (Homo sapiens (Human), UniProt Q9NWZ3); assay: biochemical; assay type: biochemical
[3] = LPS-stimulated human monocytes, TNFα content
[4] = IRAK4 enzyme, TR-FRET, 500 μM ATP
[5] = Homo sapiens, Monocyte, LPS-stimulated human monocytes, TNFα content
[6] = Homo sapiens, Monocyte, LPS-stimulated human monocytes, TNFα by TR-FRET
[7] = IRAK4 enzyme, TR-FRET (HTRF), 500 μM ATP

Chain of IRAK4 enzyme (Q9NWZ3 whole entry): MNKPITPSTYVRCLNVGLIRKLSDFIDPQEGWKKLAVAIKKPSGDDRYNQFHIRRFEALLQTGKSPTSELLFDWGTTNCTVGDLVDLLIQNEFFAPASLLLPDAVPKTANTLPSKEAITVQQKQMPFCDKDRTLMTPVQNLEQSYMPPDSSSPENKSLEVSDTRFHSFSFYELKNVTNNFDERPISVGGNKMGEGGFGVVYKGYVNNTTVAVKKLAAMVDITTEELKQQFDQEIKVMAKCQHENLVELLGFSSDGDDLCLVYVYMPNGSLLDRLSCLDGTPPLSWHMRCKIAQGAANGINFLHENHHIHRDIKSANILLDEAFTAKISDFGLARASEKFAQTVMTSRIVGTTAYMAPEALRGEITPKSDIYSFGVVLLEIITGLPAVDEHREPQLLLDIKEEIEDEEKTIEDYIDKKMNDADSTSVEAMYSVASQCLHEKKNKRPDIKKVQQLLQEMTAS

Row | SMILES | IC50 [2, 4] [nM] | EC50 [1, 5] [nM] | IC50 [2, 7] [nM] | also measured
1 | CC(C)(O)[C@H](F)CNC(=O)c1cnc(-c2ccc3cc(C#N)cnn23)cc1NC1C2CCC1CNC2 (single isomer, unassigned) [Example 28] | < 1 |  |  | EC50 [1, 3]: 109 nM
2 | CC(C)Nc1cc(-c2ccc3cc(C#N)cnn23)ncc1C(=O)N[C@H]1C[C@@](C)(O)C1 [Example 120, 6-(3-cyanopyrrolo[1,2-b]pyridazin-7-yl)-N-((1s,3s)-3-hydroxy-3-methylcyclobutyl)-4-(isopropylamino) nicotinamide] | 8 | 430 |  | 
3 | CNC(=O)CNC(=O)c1cnc(-c2ccc3cc(C#N)cnn23)cc1NC12CCC(O)(CC1)CC2 [Example 334, 6-(3-cyanopyrrolo[1,2-b]pyridazin-7-yl)-4-((4-hydroxybicyclo[2.2.2]octan-1-yl)amino)-N-(2-(methylamino)-2-oxoethyl)nicotinamide] | < 1 | 292 |  | 
4 | CC(C)(O)[C@H](F)CNC(=O)c1cnc(-c2ccc3cc(C#N)cnn23)cc1NC1CCN(C2CC2)CC1 [Example 115, (R)-6-(3-cyanopyrrolo[1,2-b]pyridazin-7-yl)-4-((1-cyclopropylpiperidin-4-yl)amino)-N-(2-fluoro-3-hydroxy-3-methylbutyl)nicotinamide] | 4 | 196 |  | 
5 | N#Cc1cnn2c(-c3cc(NC45CCC(O)(CC4)CC5)c(C(=O)NCC(=O)N4CC5(COC5)C4)cn3)ccc2c1 [Example 800, 6-(3-cyanopyrrolo[1,2-b]pyridazin-7-yl)-4-((4-hydroxybicyclo[2.2.2]octan-1-yl)amino)-N-(2-oxo-2-(2-oxa-6-azaspiro[3.3]heptan-6-yl)ethyl)nicotinamide] | 3 |  |  | EC50 [1, 6]: 133 nM
6 | CC(=O)N[C@H]1CC[C@H](Nc2cc(-c3ccc4cc(C#N)cnn34)ncc2C(=O)NC[C@@H](F)C(C)(C)O)CC1 [Example 326, 4-(((1r,4R)-4-acetamidocyclohexyl)amino)-6-(3-cyanopyrrolo[1,2-b]pyridazin-7-yl)-N-((R)-2-fluoro-3-hydroxy-3-methylbutyl)nicotinamide] |  |  |  | EC50 ([1]; Homo sapiens, Monocyte): 56 nM; IC50 [2]: < 1 nM
7 | CC(C)(O)[C@H](F)CNC(=O)c1cnc(-c2ccc3cc(C#N)cnn23)cc1Nc1ncc(F)cn1 [Example 584, (R)-6-(3-cyanopyrrolo[1,2-b]pyridazin-7-yl)-N-(2-fluoro-3-hydroxy-3-methylbutyl)-4-((5-fluoro-pyrimidin-2-yl)amino)nicotinamide] |  | 274 | 4 | 
8 | CC(C)(O)[C@H](F)CNC(=O)c1cnc(-c2ccc3cc(C#N)cnn23)cc1N[C@@H]1CN2CCC1CC2 [Example 263, 6-(3-cyanopyrrolo[1,2-b]pyridazin-7-yl)-N-((R)-2-fluoro-3-hydroxy-3-methylbutyl)-4-(((S)-quinuclidin-3-yl)amino)nicotinamide] | 3 | 193 |  | 
9 | CC(C)(O)[C@H](F)CNC(=O)c1cnc(-c2ccc3cc(C#N)cnn23)cc1NC1CCC(S(C)(=O)=O)CC1 (stereo partly drawn) [Example 523, (R)-6-(3-cyanopyrrolo[1,2-b]pyridazin-7-yl)-N-(2-fluoro-3-hydroxy-3-methylbutyl)-4-((4-(methylsulfonyl)cyclohexyl)amino)nicotinamide] |  | 412 | 14 | 
10 | CC1(O)CCCC(Nc2cc(-c3ccc4cc(C#N)cnn34)ncc2C(=O)NC[C@@H](F)C(C)(C)O)C1 (single isomer, unassigned) [Example 529] |  |  | 1 | EC50 [1, 3]: 62 nM
11 | CC(C)Nc1cc(-c2ccc3cc(C#N)cnn23)ncc1C(=O)NCCC(C)(N)C(F)(F)F (stereo not drawn) [Example 561, N-(3-amino-4,4,4-trifluoro-3-methylbutyl)-6-(3-cyano-pyrrolo[1,2-b]pyridazin-7-yl)-4-(isopropylamino) nicotinamide] |  | 121 | 1 | 
12 | CC(C)(O)[C@H](F)CNC(=O)c1cnc(-c2ccc3cc(C#N)cnn23)cc1NC1CCCC(F)C1 (stereo partly drawn) [Example 509, 6-(3-cyanopyrrolo[1,2-b]pyridazin-7-yl)-N-((R)-2-fluoro-3-hydroxy-3-methylbutyl)-4-(((1S)-3-fluorocyclohexyl)amino) nicotinamide] |  | 66 | < 1 | 
13 | CC(C)(O)[C@H](F)CNC(=O)c1cnc(-c2ccc3cc(C#N)cnn23)cc1Nc1ccc(C(C)(C)N2CCCC2=O)cc1 [Example 875, (R)-6-(3-cyanopyrrolo[1,2-b]pyridazin-7-yl)-N-(2-fluoro-3-hydroxy-3-methyl-butyl)-4-((4-(2-(2-oxo-pyrrolidin-1-yl)propan-2-yl)phenyl)amino)nicotinamide] | 2 |  |  | EC50 [1, 6]: 64 nM
14 | COc1cc(Nc2cc(-c3ccc4cc(C#N)cnn34)ncc2C(=O)NC[C@@H](F)C(C)(C)O)ccc1C(N)=O [Example 604, (R)-4-((4-carbamoyl-3-methoxyphenyl)amino)-6-(3-cyanopyrrolo[1,2-b]pyridazin-7-yl)-N-(2-fluoro-3-hydroxy-3-methylbutyl)nicotinamide] |  | 283 | 7 | 
15 | COC(=O)NC1CC2(C1)CC(Nc1cc(-c3ccc4cc(C#N)cnn34)ncc1C(=O)NC[C@@H](F)C(C)(C)O)C2 (stereo partly drawn) [Example 754, (R)-methyl (6-((2-(3-cyanopyrrolo[1,2-b]pyridazin-7-yl)-5-((2-fluoro-3-hydroxy-3-methylbutyl)carbamoyl)pyridin-4-yl)amino)spiro[3.3]heptan-2-yl)carbamate] |  | 20 | < 1 | 
16 | N#Cc1cnn2c(-c3cc(NC45CCC(O)(CC4)CC5)c(C(=O)NCc4ncco4)cn3)ccc2c1 [Example 621, 6-(3-cyanopyrrolo[1,2-b]pyridazin-7-yl)-4-((4-hydroxybicyclo[2.2.2]octan-1-yl)amino)-N-(oxazol-2-ylmethyl) nicotinamide] |  | 98 | 1 | 
17 | CC(C)(O)C1CCC(Nc2cc(-c3ccc4cc(C#N)cnn34)ncc2C(=O)NC[C@@H](F)C(C)(C)O)CC1 (stereo partly drawn) [Example 273, 6-(3-cyanopyrrolo[1,2-b]pyridazin-7-yl)-N-((R)-2-fluoro-3-hydroxy-3-methylbutyl)-4-(((1r,4R)-4-(2-hydroxypropan-2-yl)cyclohexyl)amino) nicotinamide] | 2 | 22 |  | 
18 | CC(C)(O)[C@H](F)CNC(=O)c1cnc(-c2ccc3cc(C#N)cnn23)cc1Nc1ccc(-n2cccn2)nc1 [Example 770, (R)-4-((6-(1H-pyrazol-1-yl)pyridin-3-yl)amino)-6-(3-cyanopyrrolo[1,2-b]pyridazin-7-yl)-N-(2-fluoro-3-hydroxy-3-methyl-butyl)nicotinamide] |  | 50 | < 1 | 
19 | N#CCCNC(=O)c1cnc(-c2ccc3cc(C#N)cnn23)cc1NC12CCC(O)(CC1)CC2 [Example 352, N-(2-cyanoethyl)-6-(3-cyanopyrrolo[1,2-b]pyridazin-7-yl)-4-((4-hydroxybicyclo[2.2.2]octan-1-yl)amino) nicotinamide] | 1 | 76 |  | 
20 | CC(=O)NC12CC(Nc3cc(-c4ccc5cc(C#N)cnn45)ncc3C(=O)N[C@H]3CC[C@H](C(=O)N4CC(F)(F)C4)CC3)(C1)C2 [Example 478, 4-((3-acetamido-bicyclo[1.1.1]pentan-1-yl)amino)-6-(3-cyano-pyrrolo[1,2-b]pyridazin-7-yl)-N-((1r,4r)-4-(3,3-difluoroazetidine-1-carbonyl)cyclohexyl) nicotinamide] |  | 73 | 1 | 
21 | Cn1ccc(Nc2cc(-c3ccc4cc(C#N)cnn34)ncc2C(=O)NC[C@@H](F)C(C)(C)O)cc1=O [Example 442, (R)-6-(3-cyanopyrrolo[1,2-b]pyridazin-7-yl)-N-(2-fluoro-3-hydroxy-3-methylbutyl)-4-((1-methyl-2-oxo-1,2-dihydropyridin-4-yl)amino)nicotinamide] |  | 104 | 1 | 
22 | COC(=O)NC12CCC(Nc3cc(-c4ccc5cc(C#N)cnn45)ncc3C(=O)NC3CCC(NC(=O)C4CC4)CC3)(CC1)CC2 (stereo not drawn) [Example 271, methyl (4-((2-(3-cyano-pyrrolo[1,2-b]pyridazin-7-yl)-5-((4-(cyclopropane-carboxamido)cyclohexyl)carbamoyl)pyridin-4-yl)amino)bicyclo[2.2.2]octan-1-yl)carbamate] | 1 | 38 |  | 
23 | CC(C)(O)[C@H](F)CNC(=O)c1cnc(-c2ccc3cc(C#N)cnn23)cc1NCc1cn[nH]c1 [Example 181, (R)-4-(((1H-pyrazol-4-yl)methyl)amino)-6-(3-cyanopyrrolo[1,2-b]pyridazin-7-yl)-N-(2-fluoro-3-hydroxy-3-methylbutyl)nicotinamide] | 1000 | > 10000 |  | 
24 | Cc1cncc(Nc2cc(-c3ccc4cc(C#N)cnn34)ncc2C(=O)NC[C@@H](F)C(C)(C)O)c1 [Example 233, (R)-6-(3-cyanopyrrolo[1,2-b]pyridazin-7-yl)-N-(2-fluoro-3-hydroxy-3-methylbutyl)-4-((5-methylpyridin-3-yl)amino)nicotinamide] | 1 | 170 |  | 
25 | CC(C)(O)[C@H](F)CNC(=O)c1cnc(-c2ccc3cc(C#N)cnn23)cc1NC1CCCC(S(C)(=O)=O)C1 (single isomer, unassigned) [Example 516] |  |  | 2 | EC50 [1, 3]: 595 nM
26 | CC(C)(O)[C@H](F)CNC(=O)c1cnc(-c2ccc3cc(C#N)cnn23)cc1NC12CCC(C(=O)NC34CC(C3)C4)(CC1)CC2 [Example 410, (R)-4-((4-(bicyclo[1.1.1]pentan-1-ylcarbamoyl)bicyclo[2.2.2]octan-1-yl)amino)-6-(3-cyano-pyrrolo[1,2-b]pyridazin-7-yl)-N-(2-fluoro-3-hydroxy-3-methylbutyl) nicotinamide] |  | 50 | 2 | 
27 | N#Cc1cnn2c(-c3cc(NC45CCC(O)(CC4)CC5)c(C(=O)NC4(CF)CC4)cn3)ccc2c1 [Example 964, 6-(3-cyanopyrrolo[1,2-b]pyridazin-7-yl)-N-(1-(fluoromethyl)cyclo-propyl)-4-((4-hydroxy-bicyclo[2.2.2]octan-1-yl)amino)nicotinamide] | 1 |  |  | EC50 [1, 6]: 68 nM
